{"source": "ChEMBL document CHEMBL1275281", "about": "“Synthesis, anti-inflammatory evaluation and docking studies of some new fluorinated fused quinazolines” (2010)", "key": {"Rattus norvegicus [1]": {"system": "Rattus norvegicus", "assay": "Antiinflammatory activity in Wistar rat assessed as inhibition of carrageenan-induced paw edema at 10 mg/kg, po administered 1 hr before carrageenan challenge and measured 4 hrs post carrageenan challenge relative to untreated control", "format": "functional"}, "Rattus norvegicus [2]": {"system": "Rattus norvegicus", "assay": "Antiinflammatory activity in Wistar rat assessed as inhibition of carrageenan-induced paw edema at 10 mg/kg, po administered 1 hr before carrageenan challenge and measured 2 hrs post carrageenan challenge relative to untreated control", "format": "functional"}}}
{"smiles": "NC(=O)c1c(-c2ccccc2)cc(C(F)(F)F)c2c1N=C(c1ccco1)N1CCN=C21", "values": [{"measurement": "inhibition in vivo at 10 mg/kg", "setting": "Rattus norvegicus [1]", "result": 30, "unit": "%"}, {"measurement": "inhibition in vivo at 10 mg/kg", "setting": "Rattus norvegicus [2]", "result": 31, "unit": "%"}]}
{"smiles": "NC(=O)c1c(C(F)(F)F)cc(-c2ccccc2)c2c1N=C(c1ccco1)N1CCN=C21", "values": [{"measurement": "inhibition in vivo at 10 mg/kg", "setting": "Rattus norvegicus [1]", "result": 28, "unit": "%"}, {"measurement": "inhibition in vivo at 10 mg/kg", "setting": "Rattus norvegicus [2]", "result": 29, "unit": "%"}]}
{"smiles": "NC(=O)c1c(-c2ccccc2)cc(C(F)(F)F)c2c1N=C(c1ccc(O)cc1)N1CCN=C21", "values": [{"measurement": "inhibition in vivo at 10 mg/kg", "setting": "Rattus norvegicus [1]", "result": 60, "unit": "%"}, {"measurement": "inhibition in vivo at 10 mg/kg", "setting": "Rattus norvegicus [2]", "result": 61, "unit": "%"}]}
{"smiles": "NC(=O)c1c(C(F)(F)F)cc(-c2ccccc2)c2c1N=C(c1ccc(O)cc1)N1CCN=C21", "values": [{"measurement": "inhibition in vivo at 10 mg/kg", "setting": "Rattus norvegicus [1]", "result": 57, "unit": "%"}, {"measurement": "inhibition in vivo at 10 mg/kg", "setting": "Rattus norvegicus [2]", "result": 59, "unit": "%"}]}
{"smiles": "NC(=O)c1c(-c2ccccc2)cc(C(F)(F)F)c2c1N=C(c1cccs1)N1CCN=C21", "values": [{"measurement": "inhibition in vivo at 10 mg/kg", "setting": "Rattus norvegicus [1]", "result": 24, "unit": "%"}, {"measurement": "inhibition in vivo at 10 mg/kg", "setting": "Rattus norvegicus [2]", "result": 25, "unit": "%"}]}
{"smiles": "NC(=O)c1c(C(F)(F)F)cc(-c2ccccc2)c2c1N=C(c1cccs1)N1CCN=C21", "values": [{"measurement": "inhibition in vivo at 10 mg/kg", "setting": "Rattus norvegicus [1]", "result": 33, "unit": "%"}, {"measurement": "inhibition in vivo at 10 mg/kg", "setting": "Rattus norvegicus [2]", "result": 34, "unit": "%"}]}
{"smiles": "COc1ccc2c(c1)c(CC(=O)O)c(C)n2C(=O)c1ccc(Cl)cc1", "note": "[INDOMETHACIN]", "values": [{"measurement": "inhibition in vivo at 10 mg/kg", "setting": "Rattus norvegicus [1]", "result": 75, "unit": "%"}, {"measurement": "inhibition in vivo at 10 mg/kg", "setting": "Rattus norvegicus [2]", "result": 79, "unit": "%"}]}
